Laboratory results published in US8053577B2, “Derivatives of 5,9-methanocycloocta[b]pyridin-2-(1H)-one, their preparation and use as analgesics” (priority 2006, dated 2011).

System: mice
Assay: Analgesic effect of intragastric administration on mice measured with hot-plate test
Format: in vivo, ICR mice
Details: x ± s, n = 10; for pain threshold before administration / pain-threshold before administration: baseline; for pain-threshold after administration / pain-threshold before administration: time course
Procedure: The analgesic effect with a single dose of the compounds represented by Formula I is preliminarily screened at single time point through hot-plate test, with fortanodyn and aspirin as positive controls. All of the compounds are administered intragastrically.
On the basis of preliminary screening results, several representative compounds were selected to test their analgesic duration, and a part of the results is listed in Table 4. The results illustrate that the analgesic duration of most compounds is longer than 2 hours after a single oral administration, and that some of the compounds have analgesic duration lasting longer than 4 hours.
Furthermore, the dose-effect relationship on an analgesic model of two compounds was tested and the results are shown in Table 5.
Analgesic effect of intragastric administration on mice measured with hot-plate test
Female ICR mice, weight 20+2 g, were purchased from Department of Laboratory Animal Science, Beijing University, animal license number: SCXK 2002-0001.
A) Samples: samples were prepared as mixtures with 0.9% NaCl solution for intragastric administration to mice.
B) Fortanodyn: 30 mg/pill (TianJin LiSheng Pharmaceutical Co. Ltd, lot number: 0201001), 1.5 mg/mL solution was prepared with 0.9% NaCl solution for intragastric administration to mice.
1) Hot-plate test on mice was employed. A thermostatic water bath was adjusted at 55±0.5° C., the bottom of metal plates contacted water surface and used as stimuli after heating. The time span(s) from the point when the mouse was placed onto the hot-plate to the time when the mouse started to lick its metapedes was determined as its pain threshold, which was recorded by stopwatch. Female mice with a weight of 20±2 g were used. The pain threshold of every mouse was measured twice before administration, and the qualified mice are the ones whose average pain threshold was less than 30 seconds.
The qualified mice were randomly grouped with 10 mice in each group. The pain threshold before administration was determined as the basic pain threshold. To the medication administration team, drugs of different dose were given through intragastric administration, whereas to the control group, 0.9% NaCl solution was given. The administration volume was 0.2 mL for every 10 g body weight. The pain threshold of each group was measured at 1 hour after administration.
After administration the pain threshold of each group at different time was measured. The experimental data was statistically treated with t-test using SPSS10 statistics software.

[1] = Table 3 screening, 0.6 mg/kg intragastric, 1 hour
[2] = Table 3 screening, group dosed 0.6 mg/kg intragastric

Row | SMILES | pain threshold after administration [1] [s] | pain threshold before administration [2] [s] | other results
1 | C/C=C1\[C@H]2C=C(C)C[C@]1(N=CC=Cc1ccncc1)c1ccc(=O)[nH]c1C2 [Example 20, (5R,9R,11E)-5-(3-(pyridin-4-yl)prop-2-en-1-ylideneamino)-11-ethylidene-5,6,9,10-tetrahydro-7-methyl-5,9-methanocycloocta[b]pyridin-2(1H)-one] | 25.0 ± 5.18 | 12.6 ± 2.42 | 
2 | C/C=C1\[C@H]2C=C(C)C[C@]1(/N=C/C=C/c1cccc(C)c1)c1ccc(=O)[nH]c1C2 [Example 4, (5R,9R,11E)-5-(3-(3-methylphenyl)prop-2-en-1-ylideneamino)-11-ethylidene-5,6,9,10-tetrahydro-7-methyl-5,9-methanocycloocta[b]pyridin-2(1H)-one] | 27.0 ± 5.40 | 12.2 ± 3.31 | 
3 | CC(=O)Oc1ccccc1C(=O)O [Aspirin, reference compound] |  |  | pain threshold after administration (Table 3 screening, 100 mg/kg intragastric, 1 hour): 18.2 ± 3.71 s; pain-threshold after administration (100 mg/kg intragastric, 30 min): 18.1 ± 5.40 s; pain-threshold after administration (100 mg/kg intragastric, 60 min): 18.0 ± 3.80 s; pain-threshold after administration (100 mg/kg intragastric, 120 min): 14.0 ± 3.63 s; pain-threshold after administration (100 mg/kg intragastric, 180 min): 14.3 ± 3.62 s
4 | C/C=C1\[C@H]2C=C(C)C[C@]1(/N=C/C=C/c1ccccc1Br)c1ccc(=O)[nH]c1C2 [Example 12, (5R,9R,11E)-5-(3-(2-bromophenyl)prop-2-en-1-ylideneamino)-11-ethylidene-5,6,9,10-tetrahydro-7-methyl-5,9-methanocycloocta[b]pyridin-2(1H)-one] | 19.6 ± 4.03 | 12.4 ± 2.58 | 
5 | C/C=C1\C2C=C(C)CC1(/N=C/C=C/c1c3ccccc3cc3ccccc13)c1ccc(=O)[nH]c1C2 [Example 26, (5R,9R,11E)-5-(3-(anthracen-9-yl)prop-2-en-1-ylideneamino)-11-ethylidene-5,6,9,10-1,7-dimethyl-5,9-methanocycloocta[b]pyridin-2(1H)-one] | 20.8 ± 3.60 |  | 
6 | C/C=C1\[C@H]2C=C(C)C[C@]1(/N=C/C=C(\C)c1ccccc1)c1ccc(=O)[nH]c1C2 [Example 7, (5R,9R,11E)-5-(3-methyl-3-phenylprop-2-en-1-ylideneamino)-11-ethylidene-5,6,9,10-tetrahydro-7-methyl-5,9-methanocycloocta[b]pyridin-2(1H)-one] | 24.6 ± 5.61 | 12.4 ± 2.33 | 
7 | C/C=C1\[C@H]2C=C(C)C[C@]1(/N=C/C=C/c1ccccc1OC)c1ccc(=O)[nH]c1C2 [Example 18, (5R,9R,11E)-5-(3-(2-methoxylphenyl)prop-2-en-1-ylideneamino)-11-ethylidene-5,6,9,10-tetrahydro-7-methyl-5,9-methanocycloocta[b]pyridin-2(1H)-one] | 26.0 ± 5.01 | 13.0 ± 3.03 | 
8 | C/C=C1\[C@H]2C=C(C)C[C@]1(/N=C/C=C/C=C/C=C/c1ccccc1)c1ccc(=O)[nH]c1C2 [Example 9, (5R,9R,11E)-5-(7-phenylhepta-2,4,6-trien-1-ylideneamino)-11-ethylidene-5,6,9,10-tetrahydro-7-methyl-5,9-methanocycloocta[b]pyridin-2(1H)-one] | 25.8 ± 4.35 | 12.4 ± 2.58 | 
9 | C/C=C1\[C@H]2C=C(C)C[C@]1(/N=C/C=C/c1cccc(Cl)c1)c1ccc(=O)[nH]c1C2 [Example 15, (5R,9R,11E)-5-(3-(3-chlorophenyl)prop-2-en-1-ylideneamino)-11-ethylidene-5,6,9,10-tetrahydro-7-methyl-5,9-methanocycloocta[b]pyridin-2(1H)-one] | 28.8 ± 3.92 | 13.0 ± 3.63 | 
10 | C/C=C1\[C@H]2C=C(C)C[C@]1(/N=C/C=C/c1ccco1)c1ccc(=O)[nH]c1C2 [Example 21, (5R,9R,11E)-5-(3-(furan-2-yl)prop-2-en-1-ylideneamino)-11-ethylidene-5,6,9,10-tetrahydro-7-methyl-5,9-methanocycloocta[b]pyridin-2(1H)-one] |  |  | pain threshold after administration (dose-effect, 0.42 mg/kg intragastric, 30 min): 16.3 ± 4.47 s; pain threshold after administration (dose-effect, 0.42 mg/kg intragastric, 60 min): 16.4 ± 4.03 s; pain threshold after administration (dose-effect, 0.42 mg/kg intragastric, 120 min): 13.2 ± 2.86 s; pain threshold after administration (dose-effect, 0.42 mg/kg intragastric, 180 min): 14.1 ± 1.66 s; pain threshold before administration (dose-effect, group dosed 0.42 mg/kg intragastric): 12.5 ± 2.79 s; pain-threshold after administration (0.71 mg/kg intragastric, 30 min): 17.2 ± 6.37 s; pain-threshold after administration (0.71 mg/kg intragastric, 60 min): 21.0 ± 8.77 s; pain-threshold after administration (0.71 mg/kg intragastric, 120 min): 16.9 ± 8.32 s; pain-threshold after administration (0.71 mg/kg intragastric, 180 min): 12.9 ± 3.87 s; pain-threshold after administration (0.84 mg/kg intragastric, 30 min): 23.3 ± 7.45 s; pain-threshold after administration (0.84 mg/kg intragastric, 60 min): 28.1 ± 10.15 s; pain-threshold after administration (0.84 mg/kg intragastric, 120 min): 14.9 ± 5.02 s; pain-threshold after administration (0.84 mg/kg intragastric, 180 min): 13.7 ± 2.98 s; pain-threshold before administration (group dosed 0.71 mg/kg intragastric): 11.9 ± 3.90 s; pain-threshold before administration (group dosed 0.84 mg/kg intragastric): 12.3 ± 3.86 s
11 | C/C=C1\[C@H]2C=C(C)C[C@]1(/N=C/C=C/C=C/c1ccccc1)c1ccc(=O)[nH]c1C2 [Example 8, (5R,9R,11E)-5-(5-phenylpenta-2,4-dien-1-ylideneamino)-11-ethylidene-5,6,9,10-tetrahydro-7-methyl-5,9-methanocycloocta[b]pyridin-2(1H)-one] | 23.0 ± 3.52 |  | 
12 | C/C=C1\[C@H]2C=C(C)C[C@]1(/N=C/C=C/c1ccc(Br)cc1)c1ccc(=O)[nH]c1C2 [Example 13, (5R,9R,11E)-5-(3-(4-bromophenyl)prop-2-en-1-ylideneamino)-11-ethylidene-5,6,9,10-tetrahydro-7-methyl-5,9-methanocycloocta[b]pyridin-2(1H)-one] | 22.0 ± 4.86 |  | 
13 | C/C=C1\C2C=C(C)CC1(/N=C/C=C/c1ccc3ccccc3c1)c1ccc(=O)[nH]c1C2 [Example 22, (5R,9R,11E)-5-(3-(naphthalen-2-yl)prop-2-en-1-ylideneamino)-11-ethylidene-5,6,9,10-1,7-dimethyl-5,9-methanocycloocta[b]pyridin-2(1H)-one] | 23.6 ± 4.27 | 12.4 ± 4.13 | 
14 | C/C=C1\[C@H]2C=C(C)C[C@]1(/N=C/C=C/c1cccc(OC)c1)c1ccc(=O)[nH]c1C2 [Example 19, (5R,9R,11E)-5-(3-(3-methoxylphenyl)prop-2-en-1-ylideneamino)-11-ethylidene-5,6,9,10-tetrahydro-7-methyl-5,9-methanocycloocta[b]pyridin-2(1H)-one] | 18.6 ± 3.44 | 12.0 ± 2.53 | 
15 | C/C=C1\[C@H]2C=C(C)C[C@]1(/N=C/C=C/c1ccccc1C)c1ccc(=O)[nH]c1C2 [Example 5, (5R,9R,11E)-5-(3-(2-methylphenyl)prop-2-en-1-ylideneamino)-11-ethylidene-5,6,9,10-tetrahydro-7-methyl-5,9-methanocycloocta[b]pyridin-2(1H)-one] | 27.6 ± 6.22 | 12.8 ± 3.12 | 
16 | C/C=C1\[C@H]2C=C(C)C[C@]1(/N=C/C=C/c1ccccc1Cl)c1ccc(=O)[nH]c1C2 [Example 16, (5R,9R,11E)-5-(3-(2-chlorophenyl)prop-2-en-1-ylideneamino)-11-ethylidene-5,6,9,10-tetrahydro-7-methyl-5,9-methanocycloocta[b]pyridin-2(1H)-one] | 27.4 ± 5.16 | 13.2 ± 3.76 | 
